Laboratory results reported in ChEMBL document CHEMBL4364308, “Design, synthesis, in-silico and biological evaluation of novel chalcone derivatives as multi-function agents for the treatment of Alzheimer's disease” (Eur J Med Chem, 2019).
Active and inactive are the calls of the source. The rule behind the calls is not given here.

Assays:
[1] = biological target: Acetylcholinesterase (Electrophorus electricus, UniProt O42275); test: Inhibition of electric eel AChE using acetylthiocholine iodide as substrate incubated for 15 mins by Ellman's method; type: ADME
[2] = biological target: Cholinesterase (Equus caballus, UniProt P81908); test: Inhibition of equine serum BuChE using butyrylthiocholine iodide as substrate incubated for 15 mins by Ellman's method
[3] = Antioxidant activity assessed as AAPH radical scavenging activity preincubated for 15 mins followed by AAPH addition measured every min for 90 mins by ORAC-FL assay relative to trolox; type: functional
[4] = biological target: Amyloid-beta precursor protein (Homo sapiens) (UniProt P05067); test: Inhibition of self-induced aggregation of amyloid beta (1 to 42) (unknown origin) at 25 uM incubated for 24 hrs by thioflavin-T fluorescence assay relative to control
[5] = Permeability of compound at 100 ug/ml measured after dilution with PBS/EtOH (70:30) at pH 7.4 after 18 hrs by PAMPA-BBB assay
[6] = species on record: Homo sapiens; test: Selectivity index, ratio of IC50 for recombinant human MAO-A expressed in baculovirus infected BTI insect cells to IC50 for recombinant human MAO-B expressed in baculovirus infected BTI insect cells
[7] = biological target: T1, Amine oxidase [flavin-containing] A (Homo sapiens, UniProt P21397); test: Inhibition of recombinant human MAO-A expressed in baculovirus infected BTI insect cells using kynuramine as substrate incubated for 30 mins by fluorescence based assay
T1 sequence (P21397 whole entry): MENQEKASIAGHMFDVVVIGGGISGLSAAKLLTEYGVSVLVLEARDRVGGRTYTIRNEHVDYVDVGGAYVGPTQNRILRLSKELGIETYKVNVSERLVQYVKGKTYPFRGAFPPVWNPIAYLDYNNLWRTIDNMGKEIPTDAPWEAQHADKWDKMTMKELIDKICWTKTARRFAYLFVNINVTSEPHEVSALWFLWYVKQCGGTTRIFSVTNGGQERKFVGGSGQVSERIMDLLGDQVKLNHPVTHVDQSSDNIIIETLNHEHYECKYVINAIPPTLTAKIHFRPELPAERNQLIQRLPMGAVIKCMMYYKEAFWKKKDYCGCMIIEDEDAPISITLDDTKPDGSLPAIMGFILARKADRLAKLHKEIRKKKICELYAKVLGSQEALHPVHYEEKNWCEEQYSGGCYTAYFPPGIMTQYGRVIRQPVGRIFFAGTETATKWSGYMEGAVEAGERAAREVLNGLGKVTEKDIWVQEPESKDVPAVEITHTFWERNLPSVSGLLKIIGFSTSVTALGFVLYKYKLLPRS

[8] = biological target: T2, Amine oxidase [flavin-containing] B (Homo sapiens, UniProt P27338); test: Inhibition of recombinant human MAO-B expressed in baculovirus infected BTI insect cells using kynuramine as substrate incubated for 30 mins by fluorescence based assay; type: cell-based
T2 sequence (P27338 whole entry): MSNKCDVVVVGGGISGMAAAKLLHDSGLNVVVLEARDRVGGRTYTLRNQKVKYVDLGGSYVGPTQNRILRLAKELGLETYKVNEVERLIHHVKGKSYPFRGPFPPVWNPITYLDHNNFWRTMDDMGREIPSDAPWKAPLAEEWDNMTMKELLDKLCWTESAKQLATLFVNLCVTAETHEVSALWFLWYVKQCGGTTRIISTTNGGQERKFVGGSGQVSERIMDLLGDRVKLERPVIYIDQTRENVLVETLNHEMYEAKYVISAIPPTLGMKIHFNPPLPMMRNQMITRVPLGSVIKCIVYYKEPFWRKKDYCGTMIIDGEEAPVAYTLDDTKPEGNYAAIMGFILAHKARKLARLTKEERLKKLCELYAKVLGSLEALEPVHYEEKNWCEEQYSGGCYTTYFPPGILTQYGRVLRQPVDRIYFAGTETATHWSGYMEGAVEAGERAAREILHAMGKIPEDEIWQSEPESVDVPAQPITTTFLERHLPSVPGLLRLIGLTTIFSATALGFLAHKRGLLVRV

[9] = Selectivity index, ratio of IC50 for electric eel AChE to IC50 for equine serum BuChE
[10] = tested on: PC-12; test: Neuroprotective activity against H2O2-induced cell death in rat PC12 cells assessed as cell viability at 1 uM preincubated for 24 hrs followed by H2O2 stimulation for 2 hrs followed by replacement of fresh medium and measured after 24 hrs by MTT assay (reference value: 51.3%); type: functional; settings: read-out: Activity
[11] = Metal chelating activity assessed as compound-Al3+ complex formation by measuring shift in maximum absorption from 361 nm to 426 nm at 37.5 uM after 30 mins by UV-visible spectrometry method
[12] = tested on: PC-12; test: Neuroprotective activity against H2O2-induced cell death in rat PC12 cells assessed as increase in cell viability preincubated for 24 hrs followed by H2O2 stimulation for 2 hrs followed by replacement of fresh medium and measured after 24 hrs by MTT assay; type: functional, cell-based
[13] = Disaggregation of Cu2+ induced preformed fibrils of amyloid beta (1 to 42) (unknown origin) at 25 uM after 24 hrs by transmission electron microscopy relative to control
[14] = tested on: Mus musculus; test: Antialzheimer activity in scopolamine-induced memory impairment Kunming mouse model assessed as latency time at 16.8 mg/kg po treated with compound 1 hr before training trial followed by 30 mins later administration with scopolamine and measured 24 hrs after training trial by step-down passive avoidance test (reference value: 70.4 secs); type: functional
[15] = biological target: T1, Amine oxidase [flavin-containing] A; test: Inhibition of recombinant human MAO-A expressed in baculovirus infected BTI insect cells at 10 uM incubated for 30 mins using kynuramine as substrate by fluorescence based assay relative to control; settings: 0.5 h
[16] = biological target: Cholinesterase (Equus caballus) (UniProt P81908); test: Reversible inhibition of equine serum BuChE assessed as enzyme activity at 0.1xIC50 using butyrylthiocholine iodide as substrate measured at 240 mins after dilution by Ellman's method relative to control; set-up: scale not given: the % may be the effect or the level left
[17] = Acute toxicity in Kunming mouse assessed as mortality at 250 to 1000 mg/kg, po measured for first 4 hrs through 14 days; type: organism-based; settings: in vivo
[18] = Metal chelating activity assessed as compound-Cu+ complex formation assessed as effect on maximum absorption shift at 37.5 uM after 30 mins by UV-visible spectrometry method
[19] = biological target: Cholinesterase (Equus caballus) (UniProt P81908); test: Reversible inhibition of equine serum BuChE assessed as enzyme activity at 0.1xIC50 using butyrylthiocholine iodide as substrate measured after dilution by Ellman's method relative to control; set-up: scale not given: the % may be the effect or the level left
[20] = biological target: Cholinesterase (Equus caballus) (UniProt P81908); test: Reversible inhibition of equine serum BuChE assessed as enzyme activity at 1xIC50 using butyrylthiocholine iodide as substrate measured after dilution by Ellman's method relative to control; set-up: scale not given: the % may be the effect or the level left
[21] = tested on: PC-12; test: Neuroprotective activity against H2O2-induced cell death in rat PC12 cells assessed as cell viability at 10 uM preincubated for 24 hrs followed by H2O2 stimulation for 2 hrs followed by replacement of fresh medium and measured after 24 hrs by MTT assay (reference value: 51.3%); type: functional; settings: read-out: Activity
[22] = Metal chelating activity assessed as compound-Cu2+ complex formation by measuring shift in maximum absorption from 361 nm to 418 nm at 37.5 uM after 30 mins by UV-visible spectrometry method
[23] = Metal chelating activity assessed as compound-Fe2+ complex formation assessed as effect on maximum absorption shift at 37.5 uM after 30 mins by UV-visible spectrometry method
[24] = Inhibition of Cu2+ induced human amyloid beta (1 to 42) aggregation at 25 uM after 24 hrs by thioflavin-T fluorescence assay relative to control
[25] = tested on: PC-12; test: Cytotoxicity against rat PC12 cells assessed as cell viability at 0.1 to 100 uM incubated for 24 hrs by MTT assay; type: cell-based; settings: pc-12, 24 h
[26] = Metal chelating activity assessed as compound-Fe3+ complex formation assessed as effect on maximum absorption shift at 37.5 uM after 30 mins by UV-visible spectrometry method
[27] = Acute toxicity in Kunming mouse assessed as abnormal behaviour at 250 to 1000 mg/kg, po measured for first 4 hrs through 14 days; type: organism-based; settings: in vivo
[28] = tested on: Mus musculus; test: Antialzheimer activity in po dosed scopolamine-induced memory impairment Kunming mouse model assessed as increase in latency time treated with compound 1 hr before training trial followed by 30 mins later administration with scopolamine and measured 24 hrs after training trial by step-down passive avoidance test; type: functional, organism-based
[29] = Metal chelating activity assessed as compound-Zn2+ complex formation assessed as effect on maximum absorption shift at 37.5 uM after 30 mins by UV-visible spectrometry method

Sequence of Acetylcholinesterase (O42275 whole entry): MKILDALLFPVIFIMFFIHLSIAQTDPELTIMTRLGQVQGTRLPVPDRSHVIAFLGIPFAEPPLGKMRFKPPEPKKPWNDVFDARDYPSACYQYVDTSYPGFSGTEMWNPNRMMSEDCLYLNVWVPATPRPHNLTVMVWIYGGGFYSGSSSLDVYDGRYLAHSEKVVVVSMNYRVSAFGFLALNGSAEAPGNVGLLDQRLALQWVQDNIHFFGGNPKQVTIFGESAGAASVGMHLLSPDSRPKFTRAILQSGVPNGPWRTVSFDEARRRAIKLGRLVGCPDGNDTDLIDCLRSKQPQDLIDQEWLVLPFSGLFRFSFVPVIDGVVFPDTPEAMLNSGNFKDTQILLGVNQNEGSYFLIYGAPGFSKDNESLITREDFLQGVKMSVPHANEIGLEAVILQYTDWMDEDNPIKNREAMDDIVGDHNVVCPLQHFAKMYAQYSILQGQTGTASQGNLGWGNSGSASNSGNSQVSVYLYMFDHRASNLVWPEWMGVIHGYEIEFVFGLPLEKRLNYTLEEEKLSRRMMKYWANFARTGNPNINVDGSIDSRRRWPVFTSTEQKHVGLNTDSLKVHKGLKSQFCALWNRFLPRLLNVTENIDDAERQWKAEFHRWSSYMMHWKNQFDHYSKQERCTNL
Sequence of Cholinesterase (Equus caballus) (P81908 whole entry): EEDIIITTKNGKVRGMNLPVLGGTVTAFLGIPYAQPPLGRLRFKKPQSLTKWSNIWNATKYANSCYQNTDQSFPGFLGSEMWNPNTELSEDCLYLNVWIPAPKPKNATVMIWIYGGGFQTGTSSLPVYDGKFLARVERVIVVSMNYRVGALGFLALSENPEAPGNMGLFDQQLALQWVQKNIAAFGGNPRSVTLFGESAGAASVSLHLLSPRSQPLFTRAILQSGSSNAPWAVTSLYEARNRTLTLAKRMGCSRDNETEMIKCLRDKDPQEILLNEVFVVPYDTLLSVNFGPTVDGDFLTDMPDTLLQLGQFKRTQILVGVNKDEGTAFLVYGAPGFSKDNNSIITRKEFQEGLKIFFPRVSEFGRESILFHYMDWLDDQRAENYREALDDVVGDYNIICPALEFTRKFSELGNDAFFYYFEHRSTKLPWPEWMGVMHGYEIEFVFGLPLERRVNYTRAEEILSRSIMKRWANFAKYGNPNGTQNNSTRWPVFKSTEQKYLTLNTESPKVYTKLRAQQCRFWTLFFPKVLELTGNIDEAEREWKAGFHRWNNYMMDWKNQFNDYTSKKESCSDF
Sequence of Cholinesterase (P81908 whole entry): as above
Sequence of Amyloid-beta precursor protein (Homo sapiens) (P05067 whole entry): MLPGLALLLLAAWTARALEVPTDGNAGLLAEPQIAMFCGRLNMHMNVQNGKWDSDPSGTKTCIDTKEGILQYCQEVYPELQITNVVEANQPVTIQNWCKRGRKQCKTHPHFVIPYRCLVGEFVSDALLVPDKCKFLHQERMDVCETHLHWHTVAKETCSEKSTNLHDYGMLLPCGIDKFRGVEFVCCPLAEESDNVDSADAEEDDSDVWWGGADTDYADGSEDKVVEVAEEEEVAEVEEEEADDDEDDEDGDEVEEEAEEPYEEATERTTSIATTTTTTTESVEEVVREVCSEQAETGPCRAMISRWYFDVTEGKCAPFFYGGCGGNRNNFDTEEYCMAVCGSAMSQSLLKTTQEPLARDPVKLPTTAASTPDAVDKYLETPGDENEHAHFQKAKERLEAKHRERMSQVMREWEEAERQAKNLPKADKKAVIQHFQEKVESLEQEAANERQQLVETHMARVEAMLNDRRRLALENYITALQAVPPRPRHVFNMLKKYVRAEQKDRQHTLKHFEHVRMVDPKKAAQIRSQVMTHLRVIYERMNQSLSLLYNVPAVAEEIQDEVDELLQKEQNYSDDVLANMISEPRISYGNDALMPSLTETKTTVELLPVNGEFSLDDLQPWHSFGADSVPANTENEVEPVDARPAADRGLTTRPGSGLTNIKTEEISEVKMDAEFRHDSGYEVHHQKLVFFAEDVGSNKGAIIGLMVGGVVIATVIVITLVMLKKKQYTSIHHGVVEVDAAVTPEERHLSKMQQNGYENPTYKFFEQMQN

Structure (SMILES)	IC50 [1] [µM]	IC50 [2] [µM]	Activity [3] [µMequiv/µM]	inhibition [4] [%]	Papp at 18 h, 100 ug/ml [5] [×10⁻⁶ cm/s]	Ratio IC50 [6]	IC50 [7] [µM]	IC50 [8] [µM]	Ratio IC50 [9]	inhibition at 10 µM [15] [%]	also measured
O=C(/C=C/c1ccc(F)cc1)c1ccc(OCCCN2CCc3ccccc3C2)cc1O	22.3	13.4	0.92	72.4	12.6	2.1	26.1	12.6	1.7	–	–
COc1ccccc1/C=C/C(=O)c1ccc(OCCCCN2CCc3ccccc3C2)cc1O	8.3	5.2	1.5	83.1	13.1	2.4	30.1	9.5	1.6	–	–
O=C(/C=C/c1cccc(OCCCCN2CCc3ccccc3C2)c1)c1ccccc1O	16.2	2.6	1.2	70.2	11.3	–	–	5.3	6.2	< 5	viability at 1 µM [10]: 61.9%; Activity [11]: Active; Activity [12]: Dose-dependent effect; inhibition [13]: 73.5%; Time [14]: 126.4 s; Activity [16]: 104%; Activity [17]: Non-Toxic; Activity [18]: inactive; Activity [19]: 60.8%; Activity [20]: 52.6%; viability at 10 µM [21]: 82.6%; Activity [22]: Active; Activity [23]: inactive; inhibition [24]: 80.7%; Activity [25]: Non-Toxic; Activity [26]: inactive; Activity [27]: Non-Toxic; Activity [28]: Dose-dependent effect; Activity [29]: inactive
COc1cc(/C=C/C(=O)CC(=O)/C=C/c2ccc(O)c(OC)c2)ccc1O	–	–	–	–	–	–	–	–	–	–	inhibition [13]: 56.5%; inhibition [24]: 76.5%
O=C(CCc1cccc(OCCCCN2CCc3ccccc3C2)c1)c1ccccc1O	23.1	0.64	1.4	–	16.8	–	–	26.7	36	< 5	–
O=C(/C=C/c1cccc(OCCCCN2CCC(Cc3ccccc3)CC2)c1)c1ccccc1O	15.3	4.9	1.2	71.4	12.3	–	–	6.4	3.1	< 5	–
O=C(/C=C/c1cccc(OCCCN2CCc3ccccc3C2)c1)c1ccccc1O	17.6	11.2	1.1	65.9	10.2	2.8	29.8	10.7	1.6	–	–
CN(C)c1ccc(/C=C/C(=O)c2ccc(OCCCCCCN3CCc4ccccc4C3)cc2O)cc1	6.6	10.4	1.6	97.5	13.2	–	–	7.1	0.6	< 5	–
O=C(/C=C/c1cccc(OCCCCCCN2CCc3ccccc3C2)c1)c1ccccc1O	27.1	4.1	1.1	65.6	11.8	4.7	31.5	6.7	6.6	–	–
O=C(/C=C/c1cccc(OCCCCCN2CCc3ccccc3C2)c1)c1ccccc1O	18.6	3.7	1.2	69.7	10	–	–	4.8	7.2	< 5	–
COc1cc2c(cc1OC)C(=O)C(CC1CCN(Cc3ccccc3)CC1)C2 (centres undefined)	–	–	–	–	–	–	–	–	–	–	Activity [16]: 127%; Activity [19]: 60.5%; Activity [20]: 50.9%
